{"source": "ChEMBL document CHEMBL1938294", "about": "“DNA binding and anticancer activity of naphthalimides with 4-hydroxyl-alkylamine side chains at different lengths” (Bioorg Med Chem Lett, 2012)", "key": {"Nucleic Acid [1]": {"tested_on": "Nucleic Acid", "experiment": "Binding affinity to calf thymus DNA assessed as change in melting temperature at 5 x 10^-6 M by thermal denaturation assay", "format": "nucleic-acid assay", "settings": "Bos taurus"}, "Nucleic Acid [2]": {"tested_on": "Nucleic Acid", "experiment": "Binding affinity to calf thymus DNA assessed as intercalation at 2 x 10^-5 M by CD spectroscopy", "format": "nucleic-acid assay", "settings": "Bos taurus"}, "Nucleic Acid [3]": {"tested_on": "Nucleic Acid", "experiment": "Binding affinity to calf thymus DNA assessed as intercalation at 1 x 10^-5 M by fluorescence spectroscopy", "format": "nucleic-acid assay", "settings": "Bos taurus"}, "Nucleic Acid [4]": {"tested_on": "Nucleic Acid", "experiment": "Binding affinity to calf thymus DNA assessed as melting temperature at 5 x 10^-6 M by thermal denaturation assay (reference value: 68.4 degC)", "format": "nucleic-acid assay", "settings": "Bos taurus"}, "Nucleic Acid [5]": {"tested_on": "Nucleic Acid", "experiment": "Binding affinity to calf thymus DNA by UV-Vis spectroscopy", "format": "nucleic-acid assay", "settings": "Bos taurus"}, "Nucleic Acid [6]": {"tested_on": "Nucleic Acid", "experiment": "Binding affinity to calf thymus DNA assessed as hypochromicity at 1 x 10^-5 M by UV-Vis spectroscopy", "format": "nucleic-acid assay", "settings": "Bos taurus"}, "Nucleic Acid [7]": {"tested_on": "Nucleic Acid", "experiment": "Binding affinity to calf thymus DNA assessed as bathochromic shift at 1 x 10^-5 M by UV-Vis spectroscopy", "format": "nucleic-acid assay", "settings": "Bos taurus"}, "HL-60": {"tested_on": "HL-60", "experiment": "Cytotoxicity against human HL60 cells by MTT assay", "format": "functional, cell-based"}, "Bel-7402": {"tested_on": "Bel-7402", "experiment": "Cytotoxicity against human Bel7402 cells by MTT assay", "format": "functional, cell-based"}, "Nucleic Acid [8]": {"tested_on": "Nucleic Acid", "experiment": "Binding affinity to calf thymus DNA assessed as efficiency of fluorescence enhancement at 1 x 10^-5 M by fluorescence spectroscopy", "format": "nucleic-acid assay", "settings": "Bos taurus"}}, "note": "The source made the active and inactive calls. No cut-off for these calls is given here.", "data": [{"molecule": "CN(C)CCN1C(=O)c2cccc3c(NCCCCCCO)ccc(c23)C1=O", "values": [{"measurement": "ΔTm", "setting": "Nucleic Acid [1]", "value": 3.4, "unit": "°C"}, {"measurement": "Activity", "setting": "Nucleic Acid [2]", "value": "Active"}, {"measurement": "Activity", "setting": "Nucleic Acid [3]", "value": "Active"}, {"measurement": "Tm", "setting": "Nucleic Acid [4]", "value": 71.8, "unit": "°C"}, {"measurement": "K", "setting": "Nucleic Acid [5]", "value": 1.1, "unit": "×10⁴ /M"}, {"measurement": "Activity", "setting": "Nucleic Acid [6]", "value": 31, "unit": "%"}, {"measurement": "Activity", "setting": "Nucleic Acid [7]", "value": 453, "unit": "nm"}, {"measurement": "IC50", "setting": "HL-60", "value": 20.5, "unit": "µM"}, {"measurement": "IC50", "setting": "Bel-7402", "value": 17.5, "unit": "µM"}, {"measurement": "KSV", "setting": "Nucleic Acid [8]", "value": 7.12, "unit": "×10³ /M"}]}, {"molecule": "CN(C)CCN1C(=O)c2cccc3c(NCCCCO)ccc(c23)C1=O", "values": [{"measurement": "ΔTm", "setting": "Nucleic Acid [1]", "value": 2.8, "unit": "°C"}, {"measurement": "Activity", "setting": "Nucleic Acid [2]", "value": "Active"}, {"measurement": "Activity", "setting": "Nucleic Acid [3]", "value": "Active"}, {"measurement": "Tm", "setting": "Nucleic Acid [4]", "value": 71.2, "unit": "°C"}, {"measurement": "K", "setting": "Nucleic Acid [5]", "value": 0.74, "unit": "×10⁴ /M"}, {"measurement": "Activity", "setting": "Nucleic Acid [6]", "value": 30, "unit": "%"}, {"measurement": "Activity", "setting": "Nucleic Acid [7]", "value": 452, "unit": "nm"}, {"measurement": "IC50", "setting": "HL-60", "value": 11.2, "unit": "µM"}, {"measurement": "IC50", "setting": "Bel-7402", "value": 5.57, "unit": "µM"}, {"measurement": "KSV", "setting": "Nucleic Acid [8]", "value": 1.15, "unit": "×10³ /M"}]}, {"molecule": "CN(C)CCN1C(=O)c2cccc3c(NCCCO)ccc(c23)C1=O", "values": [{"measurement": "ΔTm", "setting": "Nucleic Acid [1]", "value": 3.5, "unit": "°C"}, {"measurement": "Activity", "setting": "Nucleic Acid [2]", "value": "Active"}, {"measurement": "Activity", "setting": "Nucleic Acid [3]", "value": "Active"}, {"measurement": "Tm", "setting": "Nucleic Acid [4]", "value": 71.9, "unit": "°C"}, {"measurement": "K", "setting": "Nucleic Acid [5]", "value": 1.03, "unit": "×10⁴ /M"}, {"measurement": "Activity", "setting": "Nucleic Acid [6]", "value": 31, "unit": "%"}, {"measurement": "Activity", "setting": "Nucleic Acid [7]", "value": 453, "unit": "nm"}, {"measurement": "IC50", "setting": "HL-60", "value": 38.5, "unit": "µM"}, {"measurement": "IC50", "setting": "Bel-7402", "value": 33.5, "unit": "µM"}, {"measurement": "KSV", "setting": "Nucleic Acid [8]", "value": 4.03, "unit": "×10³ /M"}]}, {"molecule": "CN(C)CCN1C(=O)c2cccc3c(NCCCCCO)ccc(c23)C1=O", "values": [{"measurement": "ΔTm", "setting": "Nucleic Acid [1]", "value": 3.8, "unit": "°C"}, {"measurement": "Activity", "setting": "Nucleic Acid [2]", "value": "Active"}, {"measurement": "Activity", "setting": "Nucleic Acid [3]", "value": "Active"}, {"measurement": "Tm", "setting": "Nucleic Acid [4]", "value": 72.2, "unit": "°C"}, {"measurement": "K", "setting": "Nucleic Acid [5]", "value": 1.2, "unit": "×10⁴ /M"}, {"measurement": "Activity", "setting": "Nucleic Acid [6]", "value": 31, "unit": "%"}, {"measurement": "Activity", "setting": "Nucleic Acid [7]", "value": 453, "unit": "nm"}, {"measurement": "IC50", "setting": "HL-60", "value": 17.7, "unit": "µM"}, {"measurement": "IC50", "setting": "Bel-7402", "value": 9.17, "unit": "µM"}, {"measurement": "KSV", "setting": "Nucleic Acid [8]", "value": 4.36, "unit": "×10³ /M"}]}, {"molecule": "CN(C)CCN1C(=O)c2cccc3c(NCCO)ccc(c23)C1=O", "values": [{"measurement": "ΔTm", "setting": "Nucleic Acid [1]", "value": 2.6, "unit": "°C"}, {"measurement": "Activity", "setting": "Nucleic Acid [2]", "value": "Active"}, {"measurement": "Activity", "setting": "Nucleic Acid [3]", "value": "Active"}, {"measurement": "Tm", "setting": "Nucleic Acid [4]", "value": 71, "unit": "°C"}, {"measurement": "K", "setting": "Nucleic Acid [5]", "value": 1.44, "unit": "×10⁴ /M"}, {"measurement": "Activity", "setting": "Nucleic Acid [6]", "value": 31, "unit": "%"}, {"measurement": "Activity", "setting": "Nucleic Acid [7]", "value": 447, "unit": "nm"}, {"measurement": "IC50", "setting": "HL-60", "value": 25.9, "unit": "µM"}, {"measurement": "IC50", "setting": "Bel-7402", "value": 30.9, "unit": "µM"}, {"measurement": "KSV", "setting": "Nucleic Acid [8]", "value": 3.12, "unit": "×10³ /M"}]}]}
